Reference: patent US8884007B2, “Hexenone compounds and medical use thereof” (Institute of Pharmacology and Toxicology Medical Sciences …, priority 2010, dated 2014)

Key:
[1] = system: TG-induced cardiomyocytes apoptosis; assay: Protection against TG-induced cardiomyocytes apoptosis (MTT); assay type: cell-based, Wistar sucking mice
Experimental: The isolation and culture of cardiomyocytes were performed by referring to the differential adhesion method (Kreider, A. Messing, H. Doan, S. U. Kim, R. P. Lisak and D. E. Pleasure, Enrichment of Schwann cell cultures from neonatal rat sciatic nerve by differential adhesion, Brain Res 2 (1981), pp. 433-444). Wistar sucking mice newborn within 24 h were used, sterilized at skin of ventrum with iodine tincture and ethanol, subjected to thoracotomy using scissors at subxiphoid median line with a deviation to left, heart was taken out after slant thoracotomy and placed in PBS precooled with ice; the heart was softly blown and beaten with 0.01M PBS to remove blood cells and other tissues, then cut into pieces with 0.5 mm^3 size, washed with 0.01M PBS repeatedly for 2-3 times; the pieces were placed in conical flask, added with 4 ml of 0.125% pancretin, 1 ml of 0.1% collagenase II (final concentrations separately being 0.1% and 0.02%), shaken in 37° C. water bath for 10 min, the supernatant was discarded; then 4 ml of 0.125% pancretin and 1 ml of 0.1% collagenase II again, shaken in 37° C. water bath for digestion for 10 min, the supernatant was sucked and transferred to a centrifuge tube, and the supernatant was added with DMEM containing 10% FBS to terminate digestion; the step of shaking and digestion in water bath was repeated for 3-4 times, until the tissue pieces were completely digested; the collected cell suspension was centrifuged under 1000 rpm for 10 min, the supernatant was removed, then a culture medium was added for resuspension; the resuspended cells were inoculated in a cell culture flask, placed in CO2 incubator at 37° C. for incubation for 1.5 h, then the culture medium was sucked out, countered under microscope, then DMEM culture medium containing 10% FBS was used to adjust cell density, inoculated in an amount of 1×10^4 to a 96-well plate, placed in 5% CO2 incubator at 37° C. for 24 h, then half medium was replaced, a culture medium containing 0.1% Brdu was supplementally added; then the medium was replaced once per 48 h, and primary cardiomyocytes were obtained after 4 days of cultivation.
The isolated primary culture of cardiomyocytes was inoculated in an amount of 10^4 cells per well to a 96-well plate, and the volume of each well was 100 ul (marginal wells were filled with sterile PBS). […] The optical density (OD) value of each well was measured at wavelength of 550 nm by enzyme-linked immunoassay instrument, and each well was repeatedly measured for 5 times and the results were recorded. […]

primary cardiomyocytes = assay: Measurement of cell inhibition rate (MTT) on normal primary cardiomyocytes; assay type: cell-based, Wistar sucking mice
Experimental: The isolation and culture of cardiomyocytes were performed by referring to the differential adhesion method (Kreider, A. Messing, H. Doan, S. U. Kim, R. P. Lisak and D. E. Pleasure, Enrichment of Schwann cell cultures from neonatal rat sciatic nerve by differential adhesion, Brain Res 2 (1981), pp. 433-444). […]
The isolated primary culture of cardiomyocytes was inoculated in an amount of 10^4 cells per well to a 96-well plate, and the volume of each well was 100 ul (marginal wells were filled with sterile PBS). […] The optical density (OD) value of each well was measured at wavelength of 550 nm by enzyme-linked immunoassay instrument, and each well was repeatedly measured for 5 times and the results were recorded.

| Structure (SMILES) | Survival rate of cardiomyocytes (%) ([1]; TG (0.4 uM) + compound 0.3 μM group, pretreatment 30 min before inducing apoptosis) | Survival rate of cardiomyocytes (%) ([1]; TG (0.4 uM) + compound 1 μM group, pretreatment 30 min before inducing apoptosis) | Survival rate of cardiomyocytes (%) ([1]; TG (0.4 uM) + compound 10 μM group, pretreatment 30 min before inducing apoptosis) | inhibition at 100 µM (primary cardiomyocytes; Cardiomyocyte, 100 μM group, MTT, 48 h, normal primary cardiomyocytes, read-out: Inhibitive rate of cardiomyocytes (%)) [%] | inhibition at 300 µM (primary cardiomyocytes; Cardiomyocyte, 300 μM group, MTT, 48 h, normal primary cardiomyocytes, read-out: Inhibitive rate of cardiomyocytes (%)) [%] | effect on survival rate of normal cardiomyocyte (primary cardiomyocytes; concentration within 300 μM) | Survival rate of cardiomyocytes (%) ([1]; TG intervening group (0.4 uM), TG alone) |
| --- | --- | --- | --- | --- | --- | --- | --- |
| O=C(/C=C/c1ccccc1)CC(NC(=S)N1CCOCC1)C(Cl)(Cl)Cl (stereo not shown) [Example 1, (1E)-1-phenyl-5-(1-morpholinylthiocarboxamido)-6,6,6-trichloro-1-ene-3-hexanone] | 76.3 ± 7.6 | 83.3 ± 7.1 | 92.2 ± 5.6 | 2.91 ± 1.88 | 0.76 ± 0.42 | no effect |  |
| C/C=C(/C)C(=O)O[C@H]1C(C)=C2[C@H]([C@@H]1OC(=O)CCCCCCC)[C@@](C)(OC(C)=O)C[C@H](OC(=O)CCC)[C@@]1(O)[C@H]2OC(=O)[C@@]1(C)O [TG, thapsigargin, reference compound] |  |  |  |  |  |  | 59 ± 1.1 |
